According to US20260008784A1 (VASTHERA CO., LTD., priority 2022, published 2026):
Where two headings read alike, the source gives them in different places. Values belong to the compound of their own block, whether it stands above or below them.

What was measured:
[1] = reference potential values of Trx and GSH for comparison; cited from earlier work
[2] = tested on: yeast thioredoxin (Trx)/yeast Trx reductase (TR); test: Peroxidase activity assay (H2O2 reduction, NADPH oxidation); format: biochemical; conditions: 50 μM test compound, 3 μM yeast Trx, 1.5 μM yeast TR, 250 μM NADPH, 1.2 mM H2O2, 30° C.; NADPH oxidized per minute
Description: Hydrogen peroxide (H2O2)-reducing peroxidase activity of compounds in present invention was performed as follows. Peroxyredoxin activity was measured in reaction mixture (200 μL volume) containing 50 mM HEPES buffer (pH 7.0), 1 mM EDTA, 250 μM NADPH, 3 μM yeast thioredoxin (Trx), 1.5 μM yeast Trx reductase (TR), 50 μM test compound, and 1.2 mM H2O2.
Reaction was initiated by adding H2O2 and the decrease in absorbance at 340 nm was measured using Agilent UV8453 spectrophotometry (Hewlett Packard, USA) at 30° C. for 12 min. Initial reaction rate is the amount of NADPH oxidized per minute calculated from slope of the linear part of curve.
The H2O2-reducing peroxidase activity of the test compounds in present invention was measured in a reaction mixture containing thioredoxin (Trx)/thioredoxin reductase (TR), respectively.

[3] = Measurement of redox potential (DTT redox buffers, HPLC); format: physicochemical; conditions: DTT(Red)/DTT(Ox) redox buffers, 3 h, 30° C., 50% reduction of test compound
Description: A test compound (10 mM) was diluted 20-fold with each redox buffer solution and incubated for 3 h in a 30° C. water bath. Then, compounds were analyzed by HPLC. The area of peaks corresponding to the oxidized and reduced forms of test compound based on specific retention time was calculated and plotted as percent of total peak area against the Nernst equation value (mV) at x-axis. The Nernst equation value corresponding to 50% reduction of test compound was set as the midpoint redox potential value for test compound.
The redox potential values of the test compounds were analyzed based on the potential values established in redox buffer solutions where reduced and oxidized DTT are mixed at various ratios.

[4] = tested on: hepatocytes; test: Cytotoxicity test, liver cell; conditions: read-out: Cell cytotoxicity (CC50) Liver cell; concentration corresponding to 50% cell viability
Description: (§6) Cytotoxicity tests were performed against vascular endothelial cells, vascular smooth muscle cells and hepatocytes. After treatment with ascending concentrations of each compound, the concentration of test compound corresponding to 50% cell viability (CC50) was measured.

[5] = tested on: human aortic endothelial cells (HAEC); test: Cytotoxicity assay (WST-1), endothelial cell; conditions: read-out: Cell cytotoxicity (CC50) Endothelial cell; 24 h, concentration corresponding to 50% cell viability
Description: (§7) For cytotoxicity analysis, human aortic endothelial cells (HAEC) and smooth muscle cells (HASMC) were seeded in a 96-well culture plate at density of 4000 cells/well in a final volume of 100 μL. Cells were cultured for 24 h and serum-starved for an additional 18 h. Test compounds were serially diluted with EBM-2 culture medium, added to the plate at 100 μL/well, and further incubated for 24 h. The number of viable cells was measured using the WST-1 cell viability assay kit (Roche Diagnostics, USA). Cell number was expressed as absorbance values at 450 nm after subtracting the turbidity value at 600 nm. The absorbance values from three replicate wells were averaged.
(§8) After treatment with ascending concentrations of each compound, the concentration of test compound corresponding to 50% cell viability (CC50) was measured.

[6] = tested on: human aortic smooth muscle cells (HASMC); test: Cytotoxicity assay (WST-1), smooth muscle cell; conditions: read-out: Cell cytotoxicity (CC50) Smooth muscle cell; 24 h, concentration corresponding to 50% cell viability
Description: as §7, §8

[7] = tested on: Tyr 857 phosphorylation of PDGF receptor-β (PDGFRβ) in HASMC; test: Immunoblot of PDGF-mediated signaling in PrxII knock-down HASMC; format: cell-based, human; conditions: HASMC depleted of PrxII expression, FIG. 2
Description: (§1) Cells were quickly washed in ice-cold phosphate-buffered saline (PBS) and lysed in extraction buffer containing 20 mM Hepes (pH 7.0), 1% Triton X-100, 150 mM NaCl, 10% glycerol, 1 mM EDTA, 2 mM EGTA, and 1 mM DTT, 5 mM Na3VO4, 5 mM NaF, 1 mM AEBSF, aprotinin (5 μg/mL), and leupeptin (5 μg/mL). After cen-trifugation at 12,000×g, the clarified cell extracts were used for immunoblotting. For re-blotting, the immunoblots were retrieved in a solution of 67 mM Tris (pH 6.7), 2% SDS, and 100 mM 2-mercaptoethanol at 60° C. for 30 min to remove antibodies and rinsed three times with a Tris-buffered saline (TBS) solution containing 1% Triton X-100. The retrieved membranes were subjected to new immunoblotting.
In human aortic smooth muscle cell (HASMC) and human pulmonary artery smooth muscle cell (PASMC) in which PrxII was knocked out by transfecting the PrxII siRNA, the ability of test compounds to replace the cellular function of PrxII was evaluated. That is, the efficacy of the new compounds was verified in terms of signaling pathways induced by PDGF that regulates the growth and migration of vascular smooth muscle cells in the aorta and pulmonary artery. Activation of PDGF-induced signaling pathway was analyzed by an immunoblot method using an antibody that specifically recognizes phosphorylation of Tyr 857, which is a major phosphorylation site on PDGF receptor (PDGFRβ).

[8] = in vitro; conditions: human
Description: as §7, §8

[9] = in vitro; conditions: human; remark: listed apart in the source
Description: as §7, §8

[10] = in vitro
Description: as §6

[11] = tested on: Tyr 1175 phosphorylation of VEGF receptor-2 (VEGFR2) in HAEC; test: Immunoblot of VEGF-mediated signaling in PrxII knock-down HAEC; format: cell-based, human; conditions: HAECs depleted of PrxII expression, FIG. 5
Description: as §1
In human aortic endothelial cell (HAEC) and human pulmonary artery endothelial cell (PAEC) in which PrxII was knocked out by transfecting the PrxII siRNA, the ability of test compounds to replace the cellular function of PrxII was evaluated. That is, the efficacy of the new compounds was verified in terms of signaling pathways induced by VEGF that regulates the growth and migration of vascular endothelial cells in the aorta and pulmonary artery. Activation of VEGF-induced signaling pathway was analyzed by an immunoblot method using an antibody that specifically recognizes phosphorylation of Tyr 1175, which is a major phosphorylation site on VEGF receptor-2 (VEGFR2).

[12] = tested on: human aortic smooth muscle cell (HASMC); test: PDGF-induced proliferation assay, HASMC (PrxII siRNA); format: cell-based; conditions: for Degree of HASMC proliferation: PDGF-BB 25 ng/mL, percent of untreated control
Description: (§2) HASMCs and PASMCs were transfected with a PrxII-specific siRNA using RNAi MAX transfection reagent according to manufacturer's protocol. After 24 hours, transfected cells (3,000 cells/well) were seeded in a 96-well culture plate. At 12 h after seeding, cells were serum-starved for additional 18 h in SmBM basal medium containing 0.5% FBS. Test compounds were serially diluted with the same basal medium containing 0.5% FBS, added to the cells ([…]), and incubated for 2 h. After treatment, cells were placed in fresh SmBM medium containing 0.5% FBS and PDGF-BB (25 ng/mL) for growth factor stimulation and further cultured for 24 h.
(§3) The degree of cell proliferation was measured using the Cell Titer-GLO kit ([…]). Data are the percent of luminescence intensity averaged from three replicate wells versus that of untreated control group.
(§4) In human aortic smooth muscle cell (HASMC) and human pulmonary artery smooth muscle cell (PASMC) in which PrxII was knocked out by transfecting the PrxII siRNA, the ability of test compounds to inhibit the PDGF-induced proliferation of vascular smooth muscle cells was evaluated. In Table 6, the degree of proliferation in the compound-treated groups is expressed as percent of the degree of proliferation in untreated control group. The concentrations of test compounds corresponding to 50% growth inhibition (IC50) is also listed.

[13] = tested on: human pulmonary artery smooth muscle cell (PASMC); test: PDGF-induced proliferation assay, PASMC (PrxII siRNA); format: cell-based; conditions: for Degree of PASMC proliferation: PDGF-BB 25 ng/mL, percent of untreated control
Description: as §2, §3, §4

[14] = tested on: human aortic endothelial cell (HAEC); test: VEGF-induced proliferation assay, HAEC (PrxII siRNA); format: cell-based; conditions: for Degree of HAEC proliferation: VEGF-A 25 ng/mL, percent of untreated control
Description: as §2, with “HAECs” for “HASMCs”, “PAECs” for “PASMCs”, “EBM” for “SmBM”, “VEGF-A” for “PDGF-BB”
as §3
(§5) In human aortic endothelial cell (HAEC) and human pulmonary artery endothelial cell (PAEC) in which PrxII was knocked out by transfecting the PrxII siRNA, the ability of test compounds to augment the VEGF-induced proliferation of vascular endothelial cells was evaluated. In Table 7, the degree of proliferation in the compound-treated groups is expressed as percent of the degree of proliferation in untreated control group. The effective concentrations of test compounds increasing cell proliferation by 50% (EC50) is also listed.

[15] = tested on: human pulmonary artery endothelial cell (PAEC); test: VEGF-induced proliferation assay, PAEC (PrxII siRNA); format: cell-based; conditions: for Degree of PAEC proliferation: VEGF-A 25 ng/mL, percent of untreated control
Description: as §2, with “HAECs” for “HASMCs”, “PAECs” for “PASMCs”, “EBM” for “SmBM”, “VEGF-A” for “PDGF-BB”
as §3, §5

[16] = Cytotoxicity assay (WST-1), smooth muscle cell; conditions: human, human aortic smooth muscle cells (HASMC)
Description: as §7, §8

[17] = Cytotoxicity test, liver cell; conditions: hepatocytes
Description: as §6

[18] = Cytotoxicity assay (WST-1), endothelial cell; conditions: human, human aortic endothelial cells (HAEC)
Description: as §7, §8

[19] = Homo sapiens, Endothelial cell, effective concentration increasing cell proliferation by 50%, VEGF-stimulated

Compound: thioredoxin [Trx]
- Midpoint redox potential (E m) [1]: −270 mV

Compound: O=C1C2CSSC3(CCCN13)C(=O)N2Cc1ccccc1 (stereo not drawn) [Compound 7, 11-benzyltetrahydro-5H,7H-4,9a-(epiminomethano)pyrrolo[2,1-c][1,2,4]dithiazepine-5,10-dione]
- Peroxidase activity for H2O2 reduction [2]: 3.83 nmol/min
- Midpoint redox potential (E m) [3]: −300.98 mV
- CC50 [4]: > 500 µM
- CC50 [5]: > 500 µM
- CC50 [6]: > 500 µM

Compound: CN1C(=O)C2(Cc3ccccc3)SSCC1C(=O)N2C (stereo not drawn) [Compound 19, 1-benzyl-6,8-dimethyl-2,3-dithia-6,8-diazabicyclo[3.2.2]nonane-7,9-dione]
- Peroxidase activity for H2O2 reduction [2]: 5.69 nmol/min
- Effect on phosphorylation of Tyr 857 on PDGFR [7]: strongly abolish the phosphorylation
- CC50 [8]: > 500 µM
- CC50 [9]: > 500 µM
- CC50 [10]: > 500 µM

Compound: CN1CCN2C(=O)C3CSSC2(C1)C(=O)N3C (stereo not drawn) [Compound 23]
- Peroxidase activity for H2O2 reduction [2]: 8.81 nmol/min
- Effect on phosphorylation of Tyr 857 on PDGFR [7]: strongly abolish the phosphorylation
- Effect on phosphorylation of Tyr 1175 on VEGFR2 [11]: strongly abolish the phosphorylation
- Degree of HASMC proliferation ([12]; 2.5 nM): 89.8%
- Degree of HASMC proliferation ([12]; 5 nM): 54.3%
- Degree of HASMC proliferation ([12]; 10 nM): 34.4%
- Degree of HASMC proliferation ([12]; 25 nM): 20.4%
- IC50 ([12]; Homo sapiens, HASMC, 50% growth inhibition, PDGF-stimulated): 0.00685 µM
- Degree of PASMC proliferation ([13]; 2.5 nM): 70.8%
- Degree of PASMC proliferation ([13]; 5 nM): 43.3%
- Degree of PASMC proliferation ([13]; 10 nM): 32.9%
- Degree of PASMC proliferation ([13]; 25 nM): 14.6%
- Degree of PASMC proliferation ([13]; 50 nM): 3.2%
- Degree of PASMC proliferation ([13]; 100 nM): 0.0%
- IC50 ([13]; Homo sapiens, PASMC, 50% growth inhibition, PDGF-stimulated): 0.00476 µM
- Degree of HAEC proliferation ([14]; 2.5 nM): 109.4%
- Degree of HAEC proliferation ([14]; 5 nM): 122.6%
- Degree of HAEC proliferation ([14]; 10 nM): 161.3%
- Degree of HAEC proliferation ([14]; 25 nM): 187.6%
- Degree of HAEC proliferation ([14]; 50 nM): 177.1%
- Degree of HAEC proliferation ([14]; 100 nM): 133.0%
- EC50 [14, 19]: 0.00972 µM
- Degree of PAEC proliferation ([15]; 2.5 nM): 109.2%
- Degree of PAEC proliferation ([15]; 5 nM): 122.9%
- Degree of PAEC proliferation ([15]; 10 nM): 148.3%
- Degree of PAEC proliferation ([15]; 25 nM): 173.3%
- Degree of PAEC proliferation ([15]; 50 nM): 155.3%
- Degree of PAEC proliferation ([15]; 100 nM): 133.9%
- EC50 [15, 19]: 0.0052 µM
- CC50 [8]: > 500 µM
- CC50 [10]: 123 µM

- Peroxidase activity for H2O2 reduction [2]: 4.78 nmol/min
Compound: CN1C(=O)C2CSSC1(C)C(=O)N2Cc1cccs1 (stereo not drawn) [Compound 14, 1,8-dimethyl-6-(thiophen-2-ylmethyl)-2,3-dithia-6,8-diazabicyclo[3.2.2]nonane-7,9-dione]
- CC50 at 24 h [16]: > 500 µM

Compound: CN1C(=O)C2CSSC1(C)C(=O)N2Cc1nc2ccccc2s1 (stereo not drawn) [Compound 15, 6-(benzo[d]thiazol-2-ylmethyl)-1,8-dimethyl-2,3-dithia-6,8-diazabicyclo[3.2.2]nonane-7,9-dione]
- CC50 [17]: 157 µM
- CC50 at 24 h [18]: 114 µM
- CC50 at 24 h [16]: 98.5 µM

Compound: N[C@@H](CCC(=O)N[C@@H](CS)C(=O)NCC(=O)O)C(=O)O [GSH]
- Midpoint redox potential (E m) [1]: −240 mV
